Measurements: patent US9820487B2, “Abscinazole” (NATIONAL UNIVERSITY CORPORATION SHIZUOKA UNIVERSITY, priority 2014, dated 2017)

Experiments:
[1] = target: T1, abscisic acid 8′-hydroxylase CYP707A3 (Arabidopsis thaliana, UniProt Q9FH76); experiment: Abscisic acid 8′-hydroxylase CYP707A3 inhibition test; format: biochemical; details: CYP707A3 + NADPH-P450 reductase ATR1, substrate ABA, 30° C. 10 minutes; IC50 calculated from two concentrations
T1 sequence (Q9FH76 1-463): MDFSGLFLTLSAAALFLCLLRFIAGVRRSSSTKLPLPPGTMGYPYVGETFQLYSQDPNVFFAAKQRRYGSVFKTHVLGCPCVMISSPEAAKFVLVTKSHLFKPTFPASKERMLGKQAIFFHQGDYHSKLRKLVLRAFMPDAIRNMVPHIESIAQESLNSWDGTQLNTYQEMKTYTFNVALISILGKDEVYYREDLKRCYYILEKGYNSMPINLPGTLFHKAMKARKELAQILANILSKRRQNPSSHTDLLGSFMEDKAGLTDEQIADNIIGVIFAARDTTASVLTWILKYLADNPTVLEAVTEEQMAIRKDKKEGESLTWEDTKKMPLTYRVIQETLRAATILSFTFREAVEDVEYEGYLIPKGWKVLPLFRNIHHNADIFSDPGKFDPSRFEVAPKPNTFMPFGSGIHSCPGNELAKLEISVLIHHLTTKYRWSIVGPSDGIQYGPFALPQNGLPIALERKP
Procedure: In a 1.5 mL microtube, 10 μL of a solution of substrate 250 μM ABA in potassium/phosphate buffer (KPB), 5 μL of a solution of the sample in dimethylformamide, 435 μL of KPB and 40 μL of abscisic acid 8′-hydroxylase CYP707A3+NADPH-P450 reductase ATR1 were put and heated at 30° C. for 10 minutes. 10 μL of a solution of 5 mg/mL NADPH in KPB was added thereto thereby starting the enzyme reaction. The reaction was carried out at 30° C. for 10 minutes at a rotation speed of 1000 rpm, and 25 μL of an aqueous solution of 1 M sodium hydroxide was added thereto thereby terminating the reaction. The reaction solution was allowed to stand at 4° C. for 30 minutes and subsequently 50 μL of 1 M hydrochloric acid was added thereto to convert the enzyme metabolite to phaseic acid (PA). The enzyme reaction solution was subjected to an OASIS HLB cartridge (1 cc, 30 mg; washed with 1 mL of methanol (1% acetic acid) and equilibrated with 1 mL of water (1% acetic acid)) and washed with 1 mL of 10% methanol/water (1% acetic acid) thereby eluting phaseic acid with 1 mL of methanol (1% acetic acid). The eluate was concentrated under reduced pressure (toluene was added to azeotrope acetic acid), the obtained substance was dissolved in 50 μL of methanol. 20 μL of the solution was subjected to HPLC (column, YMC-Pack Hydrosphere C18 (6 mm inner diameter×150 mm length); flow rate 1 mL/min; detection 254 nm) analysis. The CYP707A3 inhibition rate of the samples was calculated in accordance with the following formula (3). Note that dimethylformamide was used for the control in place of the sample solution. Each sample was tested with two different concentrations to calculate the 50% inhibition concentration (IC50) based on the enzyme inhibition rates thereof The results are shown in Table 1.
Enzyme inhibition rate (%)={1-(PA peak area of each sample/PA peak area of control)}×100 . . . (3)

[2] = target: T2, ent-kaurene oxidase CYP701A6 (Oryza sativa subsp. japonica, UniProt Q5Z5R4); experiment: Ent-kaurene oxidase CYP701A6 inhibition test; format: biochemical; details: CYP701A6 + NADPH-P450 reductase ATR2, substrate ent-kaurene, 30° C. 30 minutes; IC50 calculated from two concentrations
T2 sequence (Q5Z5R4 1-505): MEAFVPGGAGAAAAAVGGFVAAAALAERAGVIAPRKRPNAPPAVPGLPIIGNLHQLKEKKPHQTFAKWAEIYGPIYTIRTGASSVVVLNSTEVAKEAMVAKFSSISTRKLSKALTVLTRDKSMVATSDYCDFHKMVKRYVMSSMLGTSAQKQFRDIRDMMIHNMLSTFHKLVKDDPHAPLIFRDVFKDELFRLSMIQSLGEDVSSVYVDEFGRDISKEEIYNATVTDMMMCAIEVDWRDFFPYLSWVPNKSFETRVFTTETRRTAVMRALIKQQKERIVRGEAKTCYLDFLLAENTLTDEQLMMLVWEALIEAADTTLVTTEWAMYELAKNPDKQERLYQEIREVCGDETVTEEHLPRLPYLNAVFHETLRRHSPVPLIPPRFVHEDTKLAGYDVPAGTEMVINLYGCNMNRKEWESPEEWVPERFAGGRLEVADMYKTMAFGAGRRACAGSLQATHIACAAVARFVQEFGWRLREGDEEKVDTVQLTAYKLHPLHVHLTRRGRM
Procedure: To a 1.5 mL microtube, 8 μL of an aqueous solution of 500 μM ent-kaurene as a substrate in 45% cyclodextrin and 8μL of a solution of the sample in dimethylformamide were put. 10 μL of 2.32 μM ent-kaurene oxidase CYP701A6 and 10 μL of 4.6 unit/mL NADPH-P450 reductase ATR2, heated at 30° C. for 5 minutes in advance, were added thereto. 304 μL of ultra-pure water, 40 μL of 500 mM KPB and 20 μL of an aqueous solution of 20 mM NADPH, heated at 30° C. for 10 minutes in advance, were added thereto thereby starting the enzyme reaction. The reaction was carried out at 30° C. for 30 minutes at a rotation speed of 1000 rpm and 100 μL of 1 M hydrochloric acid was added thereto thereby terminating the reaction. 5 μL of 10 μM abietic acid as the internal standard was added thereto, and the solution was extracted with 400 μL of ethyl acetate. The resultant was dried over sodium sulfate and subsequently concentrated under reduced pressure. 50 μL of methanol and 5 μL of 2 M trimethyl silyldiazomethane were added thereto to methylate carboxylic acid and the resultant was thy-solidified using nitrogen. The solidified product was dissolved in 150 μL of hexane and 1 μL of the resultant solution was subjected to a GC-MS analysis to detect the enzyme metabolite ent-kaurene acid. The CYP701A6 inhibition rate of the samples was calculated in accordance with the following formula (4). Note that the peak area of ent-kaurene acid was calculated from the peak area of m/z 273 and that ent-kaurene acid was identified from the area ratio of m/z 257, 213. The peak area of abietic acid was calculated from the area of m/z 256, and abietic acid was identified from the area ratio of m/z 316. Note that dimethylformamide was used for the control in place of the sample solution. Each sample was tested with two different concentrations to act late the 50% inhibition concentration (IC50) based on the enzyme inhibition rates thereof.
Enzyme inhibition rate (%)={1-(Ent-kaurene acid peak area of each sample/Abietic acid peak area of each sample/(Ent-kaurene acid peak area of control/Abietic acid peak area of control }×100 . . . (4)

potency estimated from few doses [1]: 0.064 µM
potency estimated from few doses [2]: 0.78 µM
SMILES: COCCOCCOCCOCC#Cc1cccc(/C=C(\[C@@H](O)C(C)(C)C)n2cncn2)c1 [Example 1 (−) Form, (−)-(S)-(E)-1-(3-(2,5,8,11-tetraoxatetradec-13-yn-14-yl)phenyl)-4,4-dimethyl-2-(1H-1,2,4-triazol-1-yl)pent-1-en-3-ol]
